Patent US20070167631A1, “Novel herbicides” (priority 2003, published 2007)

test system: Digitaria; test: Microscreen, post-emergence herbicidal action (Example B3); format: in vivo; conditions: 250 g/ha, evaluated after 9 or 13 days, scale of eleven ratings (10=total damage, 0=no action)
Description: (§1) Example B3 Microscreen, Post-Emergence Herbicidal Action Monocotyledonous and dicotyledonous test plants are sown in sterilised standard soil in seed trays each having 96 cells. After 8 to 9 days' cultivation under controlled conditions in a climatic chamber (cultivation at 17/23° C.; 13 hours' light; 50-60% humidity; after application at 19/24° C.), the plants are treated with an aqueous spray solution of 1000 mg/l of the active ingredient used ([…]; incl. 10% DMSO as solvent). The plants are grown on in the climatic chamber until the test is evaluated after 9 or 13 days. The test is evaluated in accordance with a scale of eleven ratings (10=total damage, 0=no action). Ratings of from 10 to 7 (especially from 10 to 8) indicate very good to good herbicidal action.

SMILES | Digitaria, herbicidal action rating
O=C1CCCC(O)=C1C(=O)c1ccc(C(F)(F)F)c(-c2ccc(C(F)(F)F)cc2)n1 [Compound 1.209] | 8
Cc1nc(C(=O)C2=C(O)CCCC2=O)ccc1C(F)(F)F [Compound 1.211] | 5
N#Cc1nc(C(=O)C2=C(O)CCCC2=O)ccc1C(F)(F)F [Compound 1.212] | 3
CC(C)=NOCCOc1nc(C(=O)C2=C(O)C(C)(C)C(=O)C(C)(C)C2=O)ccc1C(F)(F)F [Compound 2.010] | 3
CCN(CC)c1nc(C(=O)C2=C(O)C(C)(C)C(=O)C(C)(C)C2=O)ccc1C(F)(F)F [Compound 2.060] | 9
COCCNc1nc(C(=O)C2=C(O)C(C)(C)C(=O)C(C)(C)C2=O)ccc1C(F)(F)F [Compound 2.064] | 9
CC1CN(c2nc(C(=O)C3=C(O)C(C)(C)C(=O)C(C)(C)C3=O)ccc2C(F)(F)F)CC(C)O1 (stereo not drawn) [Compound 2.075] | 7
CN(C(=O)c1ccccc1)c1nc(C(=O)C2=C(O)C(C)(C)C(=O)C(C)(C)C2=O)ccc1C(F)(F)F [Compound 2.090] | 2
Cc1cc(-c2nc(C(=O)C3=C(O)C(C)(C)C(=O)C(C)(C)C3=O)ccc2C(F)(F)F)on1 [Compound 2.202] | 6

test system: Stellaria; test: as above; format: in vivo; conditions: 250 g/ha, evaluated after 9 or 13 days, scale of eleven ratings (10=total damage, 0=no action)
Description: as §1

SMILES | Stellaria, herbicidal action rating
O=C1CCCC(O)=C1C(=O)c1ccc(C(F)(F)F)c(-c2ccc(C(F)(F)F)cc2)n1 [Compound 1.209] | 9
Cc1nc(C(=O)C2=C(O)CCCC2=O)ccc1C(F)(F)F [Compound 1.211] | 8
N#Cc1nc(C(=O)C2=C(O)CCCC2=O)ccc1C(F)(F)F [Compound 1.212] | 7
CC(C)=NOCCOc1nc(C(=O)C2=C(O)C(C)(C)C(=O)C(C)(C)C2=O)ccc1C(F)(F)F [Compound 2.010] | 8
CCN(CC)c1nc(C(=O)C2=C(O)C(C)(C)C(=O)C(C)(C)C2=O)ccc1C(F)(F)F [Compound 2.060] | 10
COCCNc1nc(C(=O)C2=C(O)C(C)(C)C(=O)C(C)(C)C2=O)ccc1C(F)(F)F [Compound 2.064] | 10
CC1CN(c2nc(C(=O)C3=C(O)C(C)(C)C(=O)C(C)(C)C3=O)ccc2C(F)(F)F)CC(C)O1 (stereo not drawn) [Compound 2.075] | 9
CN(C(=O)c1ccccc1)c1nc(C(=O)C2=C(O)C(C)(C)C(=O)C(C)(C)C2=O)ccc1C(F)(F)F [Compound 2.090] | 8
Cc1cc(-c2nc(C(=O)C3=C(O)C(C)(C)C(=O)C(C)(C)C3=O)ccc2C(F)(F)F)on1 [Compound 2.202] | 10

test system: Solanum; test: as above; format: in vivo; conditions: 250 g/ha, evaluated after 9 or 13 days, scale of eleven ratings (10=total damage, 0=no action)
Description: (§2) Example B3 Microscreen, Post-Emergence Herbicidal Action Monocotyledonous and dicotyledonous test plants are sown in sterilised standard soil in seed trays each having 96 cells. […] The plants are grown on in the climatic chamber until the test is evaluated after 9 or 13 days. The test is evaluated in accordance with a scale of eleven ratings (10=total damage, 0=no action). Ratings of from 10 to 7 (especially from 10 to 8) indicate very good to good herbicidal action.

SMILES | Solanum, herbicidal action rating
O=C1CCCC(O)=C1C(=O)c1ccc(C(F)(F)F)c(-c2ccc(C(F)(F)F)cc2)n1 [Compound 1.209] | 9
Cc1nc(C(=O)C2=C(O)CCCC2=O)ccc1C(F)(F)F [Compound 1.211] | 8
N#Cc1nc(C(=O)C2=C(O)CCCC2=O)ccc1C(F)(F)F [Compound 1.212] | 8
CC(C)=NOCCOc1nc(C(=O)C2=C(O)C(C)(C)C(=O)C(C)(C)C2=O)ccc1C(F)(F)F [Compound 2.010] | 9
CCN(CC)c1nc(C(=O)C2=C(O)C(C)(C)C(=O)C(C)(C)C2=O)ccc1C(F)(F)F [Compound 2.060] | 10
COCCNc1nc(C(=O)C2=C(O)C(C)(C)C(=O)C(C)(C)C2=O)ccc1C(F)(F)F [Compound 2.064] | 10
CC1CN(c2nc(C(=O)C3=C(O)C(C)(C)C(=O)C(C)(C)C3=O)ccc2C(F)(F)F)CC(C)O1 (stereo not drawn) [Compound 2.075] | 10
CN(C(=O)c1ccccc1)c1nc(C(=O)C2=C(O)C(C)(C)C(=O)C(C)(C)C2=O)ccc1C(F)(F)F [Compound 2.090] | 10
Cc1cc(-c2nc(C(=O)C3=C(O)C(C)(C)C(=O)C(C)(C)C3=O)ccc2C(F)(F)F)on1 [Compound 2.202] | 10

test system: Amaranthus; test: as above; format: in vivo; conditions: 250 g/ha, evaluated after 9 or 13 days, scale of eleven ratings (10=total damage, 0=no action)
Description: as §2

SMILES | Amaranthus, herbicidal action rating
O=C1CCCC(O)=C1C(=O)c1ccc(C(F)(F)F)c(-c2ccc(C(F)(F)F)cc2)n1 [Compound 1.209] | 9
Cc1nc(C(=O)C2=C(O)CCCC2=O)ccc1C(F)(F)F [Compound 1.211] | 8
N#Cc1nc(C(=O)C2=C(O)CCCC2=O)ccc1C(F)(F)F [Compound 1.212] | 7
CC(C)=NOCCOc1nc(C(=O)C2=C(O)C(C)(C)C(=O)C(C)(C)C2=O)ccc1C(F)(F)F [Compound 2.010] | 8
CCN(CC)c1nc(C(=O)C2=C(O)C(C)(C)C(=O)C(C)(C)C2=O)ccc1C(F)(F)F [Compound 2.060] | 9
COCCNc1nc(C(=O)C2=C(O)C(C)(C)C(=O)C(C)(C)C2=O)ccc1C(F)(F)F [Compound 2.064] | 8
CC1CN(c2nc(C(=O)C3=C(O)C(C)(C)C(=O)C(C)(C)C3=O)ccc2C(F)(F)F)CC(C)O1 (stereo not drawn) [Compound 2.075] | 6
CN(C(=O)c1ccccc1)c1nc(C(=O)C2=C(O)C(C)(C)C(=O)C(C)(C)C2=O)ccc1C(F)(F)F [Compound 2.090] | 6
Cc1cc(-c2nc(C(=O)C3=C(O)C(C)(C)C(=O)C(C)(C)C3=O)ccc2C(F)(F)F)on1 [Compound 2.202] | 6

test system: Nasturtium; test: as above; format: in vivo; conditions: 250 g/ha, evaluated after 9 or 13 days, scale of eleven ratings (10=total damage, 0=no action)
Description: as §2

SMILES | Nasturtium, herbicidal action rating
O=C1CCCC(O)=C1C(=O)c1ccc(C(F)(F)F)c(-c2ccc(C(F)(F)F)cc2)n1 [Compound 1.209] | 9
Cc1nc(C(=O)C2=C(O)CCCC2=O)ccc1C(F)(F)F [Compound 1.211] | 10
N#Cc1nc(C(=O)C2=C(O)CCCC2=O)ccc1C(F)(F)F [Compound 1.212] | 8
CC(C)=NOCCOc1nc(C(=O)C2=C(O)C(C)(C)C(=O)C(C)(C)C2=O)ccc1C(F)(F)F [Compound 2.010] | 9
CCN(CC)c1nc(C(=O)C2=C(O)C(C)(C)C(=O)C(C)(C)C2=O)ccc1C(F)(F)F [Compound 2.060] | 10
COCCNc1nc(C(=O)C2=C(O)C(C)(C)C(=O)C(C)(C)C2=O)ccc1C(F)(F)F [Compound 2.064] | 10
CC1CN(c2nc(C(=O)C3=C(O)C(C)(C)C(=O)C(C)(C)C3=O)ccc2C(F)(F)F)CC(C)O1 (stereo not drawn) [Compound 2.075] | 10
CN(C(=O)c1ccccc1)c1nc(C(=O)C2=C(O)C(C)(C)C(=O)C(C)(C)C2=O)ccc1C(F)(F)F [Compound 2.090] | 10
Cc1cc(-c2nc(C(=O)C3=C(O)C(C)(C)C(=O)C(C)(C)C3=O)ccc2C(F)(F)F)on1 [Compound 2.202] | 10
